# How the values were obtained:
# [1] = biological target: human vasopressin V1b receptor (Homo sapiens (Human), UniProt P47901); assay: Vasopressin V1b receptor binding assay; conditions: membranes from CHO-K1 cells, displacement of 3H-AVP
# Experimental: The test substances were dissolved in a concentration of 5 mM in 100% DMSO and further diluted to 5×10^−4 M to 5×10^−9 M. These serial DMSO predilutions were diluted 1:10 with assay buffer. The substance concentration was further diluted 1:5 in the assay mixture resulting in 2% DMSO in the mixture. All dilutions were performed in a Biomek NX automation workstation (Beckman)
# The membrane pellet was again homogenized and centrifuged as described and subsequently taken up in 50 mM Tris-HCl, pH 7.4, homogenized and stored in aliquots frozen in liquid nitrogen at −190° C.
# (§1) The incubation buffer was: 50 mM Tris, 10 mM MgCl2, 0.1% BSA, pH 7.4.
# All determinations were carried out as duplicate determinations. […] The liquid scintillation measurement took place in a Microbeta TriLux 12 (Wallac). Analysis:
# (§2) The binding parameters were calculated by nonlinear regression in SAS.
# [2] = biological target: human vasopressin V1a receptor (Homo sapiens (Human), UniProt P37288); assay: Vasopressin V1a receptor binding assay; conditions: selectivity quotient, human V1a vs human V1b receptor
# Sequence of human vasopressin V1a receptor (P37288 whole entry): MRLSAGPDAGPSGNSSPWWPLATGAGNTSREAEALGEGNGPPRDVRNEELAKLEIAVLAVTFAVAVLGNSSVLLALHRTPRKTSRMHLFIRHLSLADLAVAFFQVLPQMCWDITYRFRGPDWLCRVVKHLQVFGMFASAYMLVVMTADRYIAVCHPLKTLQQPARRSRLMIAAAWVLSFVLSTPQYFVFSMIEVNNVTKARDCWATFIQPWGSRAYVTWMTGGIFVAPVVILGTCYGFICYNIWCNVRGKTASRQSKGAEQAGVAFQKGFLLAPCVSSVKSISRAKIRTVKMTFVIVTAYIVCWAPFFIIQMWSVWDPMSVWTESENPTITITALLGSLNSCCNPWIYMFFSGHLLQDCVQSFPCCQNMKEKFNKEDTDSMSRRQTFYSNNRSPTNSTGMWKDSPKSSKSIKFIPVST
# Experimental: The test substances were dissolved in a concentration of 5 mM M in DMSO. Further dilution of these DMSO solutions took place as described for V1b.
# The membrane pellet was again homogenized in a High-Pressure-Homogenizer, Polytec 50K at 1500 PSI (Heinemann, Germany) and subsequently taken up in 50 mM Tris-HCl, pH 7.4, homogenized and stored in aliquots frozen in liquid nitrogen at −190° C.
# as §1
# Duplicate determinations were carried out.
# After incubation (60 minutes at room temperature), the samples were processed as described for V1b.
# as §2
# Sequence of human vasopressin V1b receptor (P47901 whole entry): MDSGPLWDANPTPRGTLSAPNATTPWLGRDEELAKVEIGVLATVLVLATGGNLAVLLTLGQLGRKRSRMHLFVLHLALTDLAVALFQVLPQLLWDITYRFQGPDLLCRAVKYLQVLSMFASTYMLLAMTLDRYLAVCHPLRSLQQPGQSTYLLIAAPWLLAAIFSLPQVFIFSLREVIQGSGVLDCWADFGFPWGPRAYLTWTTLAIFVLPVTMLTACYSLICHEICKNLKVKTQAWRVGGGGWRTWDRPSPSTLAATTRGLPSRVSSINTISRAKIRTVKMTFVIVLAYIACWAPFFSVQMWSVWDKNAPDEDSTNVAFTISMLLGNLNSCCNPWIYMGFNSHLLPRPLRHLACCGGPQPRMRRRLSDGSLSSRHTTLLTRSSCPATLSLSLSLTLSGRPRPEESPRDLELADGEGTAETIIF
Compound,Ki [1] [nM],Ki(h-V1a)/ Ki(h-V1b) [2]
"CCOc1ccc(OC)cc1C1(N2CC3(CN(C4CCN(C)CC4)C3)C2)C(=O)N(S(=O)(=O)c2ccc(OC)cn2)c2ccc(C#N)cc21 (racemic) [Example 1, (±)-3-(2-ethoxy-5-methoxy-phenyl)-1-[(5-methoxy-2-pyridyl)sulfonyl]-3-[2-(1-methyl-4-piperidyl)-2,6-diazaspiro[3.3]heptan-6-yl]-2-oxo-indoline-5-carbonitrile]",1 to 10,+++ (>75)
"CCOc1ccc(OC)cc1C1(N2CC3(CN(C4CCN(C)CC4)C3)C2)C(=O)N(S(=O)(=O)c2ccc(OC)cc2OC)c2ccc(C#N)cc21 (racemic) [Example 2, (±)-1-(2,4-dimethoxyphenyl)sulfonyl-3-(2-ethoxy-5-methoxy-phenyl)-3-[2-(1-methyl-4-piperidyl)-2,6-diazaspiro[3.3]heptan-6-yl]-2-oxo-indoline-5-carbonitrile]",10 to 100,++ (25-75)
"CCOc1ccc(OC)cc1C1(N2CC3(CN(C4CCN(C)CC4)C3)C2)C(=O)N(S(=O)(=O)c2cccc3cccnc23)c2ccc(C#N)cc21 (racemic) [Example 3, (±)-3-(2-ethoxy-5-methoxy-phenyl)-3-[2-(1-methyl-4-piperidyl)-2,6-diazaspiro[3.3]heptan-6-yl]-2-oxo-1-(8-quinolylsulfonyl)indoline-5-carbonitrile]",10 to 100,+++ (>75)
"CCOc1ccc(OC)cc1C1(N2CC3(CN(C4CCN(C)CC4)C3)C2)C(=O)N(S(=O)(=O)c2ccc(OC)cc2)c2ccc(C#N)cc21 (racemic) [Example 5, (±)-3-(2-ethoxy-5-methoxy-phenyl)-1-(4-methoxyphenyl)sulfonyl-3-[2-(1-methyl-4-piperidyl)-2,6-diazaspiro[3.3]heptan-6-yl]-2-oxo-indoline-5-carbonitrile]",1 to 10,+ (10-<25)

# Results, then the compound that gave them:
Ki [1] [nM],Ki(h-V1a)/ Ki(h-V1b) [2],Compound
1 to 10,+++ (>75),"CCOc1cc(F)ccc1C1(N2CC3(CN(C4CCN(C)CC4)C3)C2)C(=O)N(S(=O)(=O)c2ccc(OC)cn2)c2ccc(C#N)cc21 (racemic) [Example 7, (±)-3-(2-ethoxy-4-fluoro-phenyl)-1-[(5-methoxy-2-pyridyl)sulfonyl]-3-[2-(1-methyl-4-piperidyl)-2,6-diazaspiro[3.3]heptan-6-yl]-2-oxo-indoline-5-carbonitrile]"
10 to 100,–,"CCOc1ncccc1C1(N2CC3(CN(C4CCN(C)CC4)C3)C2)C(=O)N(S(=O)(=O)c2ccc(OC)cc2)c2ccc(C#N)cc21 (racemic) [Example 12, (±)-3-(2-ethoxy-3-pyridyl)-1-(4-methoxyphenyl)sulfonyl-3-[2-(1-methyl-4-piperidyl)-2,6-diazaspiro[3.3]heptan-6-yl]-2-oxo-indoline-5-carbonitrile]"
1 to 10,–,"CCOc1ccc(OC)cc1C1(N2CC3(CN(C4CCN(C)CC4)C3)C2)C(=O)N(S(=O)(=O)c2ccc(OC)cn2)c2cc(C#N)ccc21 (racemic) [Example 29, (±)-3-(2-ethoxy-5-methoxy-phenyl)-1-[(5-methoxy-2-pyridyl)sulfonyl]-3-[2-(1-methyl-4-piperidyl)-2,6-diazaspiro[3.3]heptan-6-yl]-2-oxo-indoline-6-carbonitrile]"
10 to 100,–,"CCOc1ccc(OC)cc1C1(N2CC3(CN(C4CCN(C)CC4)C3)C2)C(=O)N(S(=O)(=O)c2ccc(OC)cc2)c2ccc(C#N)cc21 (single isomer, unassigned; (-)) [Example 6, (−)-3-(2-ethoxy-5-methoxy-phenyl)-1-(4-methoxyphenyl)sulfonyl-3-[2-(1-methyl-4-piperidyl)-2,6-diazaspiro[3.3]heptan-6-yl]-2-oxo-indoline-5-carbonitrile]"
10 to 100,–,"CCOc1ccc(OC)cc1[C@]1(N2CC3(CN(C4CCN(C)CC4)C3)C2)C(=O)N(S(=O)(=O)c2cccc(OC)n2)c2ccc(C#N)cc21 [Example 32, (3S)-3-(2-ethoxy-5-methoxy-phenyl)-1-[(6-methoxy-2-pyridyl)sulfonyl]-3-[2-(1-methyl-4-piperidyl)-2,6-diazaspiro[3.3]heptan-6-yl]-2-oxo-indoline-5-carbonitrile]"
